From US8450283B2, “Composition for treating cancer and use thereof” (National Taiwan University, priority 2008, dated 2013)
“Also recorded” adds a separate entry of the source. Where a SMILES comes first, the peptide text is derived from it. Bridges are numbered along the chain shown (N, C = ends).

Key:
human VEGF165 = molecular target: T1, human VEGF165 (Homo sapiens, UniProt P15692); assay: Surface plasmon resonance binding of recombinant sNRP1 to VEGF165; settings: read-out: average dissociation constant (KD) of human VEGF165 binding to sNRP1
T1 construct: purchased PeproTech, Inc
T1 sequence (P15692 27-191 isoform P15692-4): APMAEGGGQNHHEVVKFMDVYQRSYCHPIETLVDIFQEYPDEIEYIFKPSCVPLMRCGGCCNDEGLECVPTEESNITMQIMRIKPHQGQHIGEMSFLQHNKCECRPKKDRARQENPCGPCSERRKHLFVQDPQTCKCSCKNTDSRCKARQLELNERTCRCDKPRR
Experimental: (§1) The binding kinetics of selected peptides with NRP1 were tested using the surface plasmon resonance based measuring system (Biacore AB) at 25° C. Recombinant NRP1 was immobilized on CM5 sensor chips by amine coupling at 400 response units using the amine coupling kit (Biacore) according to the manufacturer's instructions. Binding was detected in resonance units after injecting various concentrations of peptide at a flow rate of 30 μL/min. Sensograms of association and dissociation were recorded and analyzed using BIAevaluation software 3.0 (Biacore AB).

VEGFR2 = assay: VEGF165-induced VEGFR2 phosphorylation in CL1-5 cells (immunoprecipitation / Western blot); assay type: cell-based, human
Experimental: VEGFR2 phosphorylation was assessed as previously described (Soker S, et al., J Cell Biochem 2002, 85:357-368). Briefly, CL1-5 cells were treated with a mixture of hVEGF and sNRP1 for 30 min on ice and then at 37° C. for 7 min. Cell lysates were immunoprecipitated with anti-VEGFR2 antibodies. For Western blotting, the membranes were first probed with anti-Flk-1 antibodies and then reprobed with anti-phospho-VEGFR2 antibodies 2/3(pc460) after being stripped with deblotting buffer. In the antiangiogenesis assay, HUVECs were pretreated with peptides for 10 min followed by treatment with VEGF for 5 min, and the cells were then immediately extracted with lysis buffer. Activation of Flk-1/KDR was determined by immunoblotting cell extracts with anti-Flk-1 antibodies and then reprobing with anti-phospho-VEGFR2 antibodies (pTyr^1214) after the membranes had been stripped with deblotting buffer.

CL1-5 cells [1] = assay: In vitro invasion assay (modified Boyden chamber, Matrigel); assay type: cell-based, human; settings: 48 h, Matrigel-coated Transwell
Experimental: A modified Boyden chamber system was used to investigate the invasive capability of CL cells treated with selected peptides, sNRP1, and siRNA of NRP1 (Chu Y W, et al., Am J Respir Cell Mol Biol 1997, 17: 353-360). The polycarbonate membranes (containing 8-μm pores) of Transwell inserts were coated with Matrigel. The cells were suspended in RPMI 1640 containing 10% NuSerum (Life Science), and 2.5×10^4 cells were placed into the upper well of each chamber. After incubation for 48 h at 37° C., the Transwell membrane was fixed with methanol for 10 min at room temperature and stained with a 50 μg/mL solution of propidium iodide (Sigma) for 30 min at room temperature. The number of cells in each membrane was counted under a microscope at a magnification of ×50 using the Analytical Imaging Station software package (Imaging Research Inc.). Each sample was assayed in triplicate.

Akt = assay: VEGF165-induced Akt phosphorylation in CL1-5 cells (Western blot); assay type: cell-based, human; settings: 1.3 nmol/L VEGF165, 10 nmol/L sNRP1
CL1-5 cells [2] = assay: Filamentous actin staining (rhodamine-phalloidin); assay type: cell-based, human
Experimental: For filamentous actin (F-actin) staining, cells were seeded on coverslips in 24-well plates and allowed to attach for 24 h in medium containing 10% FCS. The cells were fixed, washed, and permeabilized in 0.1% Triton-X. The cells were incubated for 30 min with 5 units/mL of rhodamine-conjugated phalloidin (Molecular Probe) and mounted using Fluor Save reagent (Calbiochem). The slides were analyzed using a Zeiss Axioplan 2 microscope.

CL1-5 cells [3] = assay: Cytotoxicity / cell viability of peptide-treated cancer cells; assay type: cell-based, human; settings: peptide treatment of cancer cells
NRP1 [4] = molecular target: T2, NRP1 (Homo sapiens, UniProt O14786); assay: Surface plasmon resonance (Biacore) binding of selected peptides to NRP1; settings: 25° C., immobilized recombinant NRP1, read-out: ka
T2 construct: Recombinant soluble NRP1 (sNRP1) protein containing His6 and c-Myc domain tags was synthesized in NIH-3T3 murine fibroblast cells; His6; c-Myc; made in house; host or cells: NIH-3T3 fibroblast cells, secreted into medium, purified on Ni-NTA
T2 sequence (O14786 22-644 isoform O14786-2 limits assumed): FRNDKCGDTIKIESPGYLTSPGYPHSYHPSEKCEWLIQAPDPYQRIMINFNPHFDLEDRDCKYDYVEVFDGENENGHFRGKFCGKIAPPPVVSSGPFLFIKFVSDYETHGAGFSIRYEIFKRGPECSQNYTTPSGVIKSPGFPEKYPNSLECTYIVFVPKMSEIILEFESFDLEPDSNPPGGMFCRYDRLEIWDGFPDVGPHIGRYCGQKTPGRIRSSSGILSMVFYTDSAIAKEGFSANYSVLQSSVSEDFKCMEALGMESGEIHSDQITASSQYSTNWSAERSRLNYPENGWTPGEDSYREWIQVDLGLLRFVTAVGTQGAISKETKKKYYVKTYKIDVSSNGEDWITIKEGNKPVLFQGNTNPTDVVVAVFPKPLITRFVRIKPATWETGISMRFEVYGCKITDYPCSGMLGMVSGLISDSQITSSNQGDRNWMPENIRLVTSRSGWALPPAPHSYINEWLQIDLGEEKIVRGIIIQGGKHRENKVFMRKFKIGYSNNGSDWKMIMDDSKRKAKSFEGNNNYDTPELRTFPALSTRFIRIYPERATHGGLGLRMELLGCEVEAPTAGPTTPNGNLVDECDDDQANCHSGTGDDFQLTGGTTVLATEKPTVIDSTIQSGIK
Experimental: as §1

CL1-5 cells [5] = assay: Scratch wound healing migration assay; assay type: cell-based, human; settings: 24 h after scratch, 24 nmol/L siRNA
Experimental: Cell migration was measured by the in vitro scratch wound healing assay (Tamura M, et al., Science 1998, 280: 1614-1617). CL1-5 cells were transfected with 24 nmol/L siRNA-1 in 12-well plates. Twenty-four hours after transfection, cells were scratched with a yellow pipette tip and photographed 18, 21, and 24 h after the scratch. The cell migration at 0, 18, 21, and 24 h was evaluated by counting cells that had migrated from the wound edge.

PI3K = assay: Phosphoinositide-3-kinase activity assay in CL1-5 cells; assay type: cell-based, human; settings: 48 h after transfection, 1.3 nmol/L VEGF165, vs nonsilencing siRNA
Experimental: Phosphoinositide-3-kinase (PI3K) activities were assayed as described previously (Lin M T, et al., J Biol Chem 2001, 276: 48997-49002) with some modifications. In brief, CL1-5 cell extracts were incubated with the antiphosphotyrosine antibody and then precipitated with protein A-Sepharose. The immunocomplexes were preincubated with phosphatidylinositol-4,5-P2 (Sigma), and the kinase reaction was initiated by adding 10 μCi of [γ-^32P]ATP in reaction buffer for 15 min. Phospholipids were separated by TLC and visualized by phosphorimaging.

NRP1 [6] = assay: NRP1 expression after siRNA transfection (Western blot); assay type: cell-based, human; settings: CL1-5 cells transfected with siRNA

| Compound | invasion ability of CL1-5 cells (in words) (CL1-5 cells [1]) | cytotoxicity / cell viability (CL1-5 cells [3]) | kon (NRP1 [4]) | NRP1 expression (NRP1 [6]) | further results |
| --- | --- | --- | --- | --- | --- |
| sNRP1: Recombinant soluble NRP1 protein containing His6 and c-Myc domain tags, synthesized in NIH-3T3 cells | dose-dependent decrease |  |  |  | Kd (human VEGF165): 125 nM; VEGF165-induced VEGFR2 activation (VEGFR2; VEGF165 plus sNRP1): decreased by sNRP1 in a dose-dependent manner; VEGF165-induced VEGFR2 activation (VEGFR2; high concentrations of sNRP1): totally blocked; VEGF165-induced phosphorylation of Akt at Ser473 (Akt): decreased to less than one third; F-actin polymerization and filopodia formation (CL1-5 cells [2]): inhibited F-actin polymerization and filopodia formation |
| CSCC[C@@H]1NC(=O)[C@H](CCCNC(=N)N)NC(=O)[C@@H]2CCCN2C(=O)[C@H](CCCNC(=N)N)NC(=O)[C@H](CCCNC(=N)N)NC(=O)[C@@H](N)CSSC[C@@H](C(=O)O)NC(=O)[C@H]([C@@H](C)O)NC(=O)[C@H](CC(C)C)NC1=O [DG1, CRRPRMLTC] (H-CRRPRMLTC-OH; disulfide 1-9; N-terminus and C-terminus assumed) |  | without affecting cell viability; also recorded: not cytotoxic | 1230 M⁻¹ s⁻¹ |  |  |
| CC[C@H](C)[C@@H]1NC(=O)[C@H](CCCNC(=N)N)NC(=O)[C@H](CCCNC(=N)N)NC(=O)[C@H](CO)NC(=O)[C@H](CCCNC(=N)N)NC(=O)[C@@H](N)CSSC[C@@H](C(=O)O)NC(=O)[C@H](CC(C)C)NC(=O)[C@H](CCCNC(=N)N)NC1=O [DG2, CRSRRIRLC] (H-CRSRRIRLC-OH; disulfide 1-9; N-terminus and C-terminus assumed) |  | not cytotoxic | 123 ± 24 M⁻¹ s⁻¹ |  |  |
| AACACCTAGTGGAGTGATAAA [siRNA-1] | decreased the invasion ability of CL1-5 cells in a dose-dependent manner |  |  | Significant suppression | migration of CL1-5 cells (CL1-5 cells [5]): significantly inhibited; VEGF165-induced PI3K activation (PI3K): decreased |
| AACAGCCTTGAATGCACTTAT [siRNA-2] | decreased the invasion ability of CL1-5 cells in a dose-dependent manner |  |  | Significant suppression |  |
